{"source": "patent US9272034B2", "about": "“Treatment of conditions related to shock” (The Regents of the University of California, priority 2007, dated 2016)", "key": {"Cecal Lig. Shock": {"test_system": "Cecal Lig. Shock", "assay": "Long-term survival, cecal ligation shock with blockade in intestinal lumen and peritoneum", "assay_type": "in vivo, rat", "conditions": "for survival rate (survivors/treated): alternative serine protease inhibitors", "experimental": "(§1) A study of the long term survival after blockade of digestive enzymes provided further support to the findings. In preparation for this application the inventors carried out pilot studies in the rat with (a) hemorrhagic, (b) endotoxic and (c) cecal ligation shock, followed by an observation period for two weeks until normal cage activities were recorded in survivors. Without food restriction, in hemorrhagic shock the mean blood pressure was reduced for two hours to 35 mmHg followed by return of all blood volume but no further resuscitation. The digestive enzymes were blocked at 1 hour after hypotension by direct infusion of ANGD (0.37 mM, 15 ml) into the intestinal lumen after a temporary exposure via a midline incision. In endotoxic shock, the rats received gram-negative endotoxin (5 mg/kg, i.v.); the digestive enzymes were blocked in the same way at 1 hour after endotoxin administration. No other agent was administered. In cecal ligation shock both the digestive enzymes in the lumen of the intestine as well as inside the peritoneum were blocked with ANGD. […] In contrast to untreated controls, all treated survivors returned after anesthesia within hours to normal activity (walking, climbing, grooming, drinking, eating, bowel movements) and within 3 days to normal weight gain. Furthermore, treatment with alternative serine protease inhibitors (CYCLOKAPRON, tranexamic acid; TRASYLOL, aprotinin) in cecal ligation shock gave significant survival rates (5/5 rats, P<0.0079; 4/5 rats, P<0.02, respectively)."}, "hemorrhagic shock [1]": {"test_system": "hemorrhagic shock", "assay": "Enteroclysis with digestive protease blockade in porcine hemorrhagic shock", "assay_type": "in vivo, pigs", "experimental": "The inventors examined the utility of intestinal lavage in a porcine model of hemorrhagic shock. An objective of this study was to determine the effect of digestive protease blockade in the lumen of the intestine during hemorrhagic shock. The animals (16 pigs) were subjected to a shock that mimics clinical events. Pigs were bled 30 ml/kg over 30 minutes and maintained at a mean arterial pressure of 30 mmHg for 60 minutes and shed blood was then used to maintain a pressure of 45 mmHg for three hours."}, "[2]": {"test_system": "pancreatic digestive enzymes", "assay": "Enzyme inhibitors administered directly into the circulation (i.v., i.a., i.m.) in shock", "assay_type": "in vivo", "conditions": "administered directly into the circulation (i.v., i.a., i.m.) instead of the lumen of the intestine", "experimental": "From a mechanistic point of view, an important feature is the fact that the significant protection rendered by the inhibition of pancreatic digestive enzymes is only provided if the enzymes are blocked inside the lumen of the intestine. […] This observation supports the hypothesis that digestive enzymes in the lumen of the intestine—where they are fully activated and in high concentrations—are the major enzymes in acute intestinal ischemia. They produce inflammatory mediators that are carried towards the central circulation via the portal venous system, but also via the intestinal lymphatics."}, "Hemorrhagic Shock [3]": {"test_system": "Hemorrhagic Shock", "assay": "Long-term survival, hemorrhagic shock with intra-intestinal enzyme blockade", "assay_type": "in vivo, rat", "conditions": "ANGD 0.37 mM, 15 ml into intestinal lumen at 1 hour after hypotension; two weeks observation; P < 0.01", "experimental": "as §1, with “Furthermore, treatment with alternative serine protease inhibitors (CYCLOKAPRON, tranexamic acid; TRASYLOL, aprotinin) in cecal ligation shock gave significant survival rates (5/5 rats, P<0.0079; 4/5 rats, P<0.02, respectively).” left out"}, "Endotoxic Shock": {"test_system": "Endotoxic Shock", "assay": "Long-term survival, endotoxic shock with intra-intestinal enzyme blockade", "assay_type": "in vivo, rat", "conditions": "endotoxin 5 mg/kg i.v.; blockade at 1 hour; two weeks observation; P < 0.004", "experimental": "as §1, with “Furthermore, treatment with alternative serine protease inhibitors (CYCLOKAPRON, tranexamic acid; TRASYLOL, aprotinin) in cecal ligation shock gave significant survival rates (5/5 rats, P<0.0079; 4/5 rats, P<0.02, respectively).” left out"}, "[4]": {"test_system": "hemorrhagic, endotoxic and cecal ligation shock", "assay": "Long-term survival pilot studies, observations stated for all three shock models together", "assay_type": "in vivo, rat", "experimental": "as §1"}, "[5]": {"test_system": "plasma enzymatic activity (cleavage of the extracellular domain of the insulin receptor)", "assay": "Shock plasma protease activity cleaving the insulin receptor extracellular domain on donor cells", "assay_type": "cell-based", "conditions": "plasma of rats in hemorrhagic shock collected at 4 hours; results not shown", "experimental": "It was further shown that plasma of shock rats has protease activity and causes cleavage of the extracellular domain of the insulin receptor, E-cadherin, and CAT-1. In all forms of shock there is consistently proteolytic activity in plasma. Therefore the inventors investigated the ability of central venous plasma of rats in hemorrhagic shock (collected at 4 hours) to cleave the extracellular domain of the insulin receptor a by using an antibody against the extracellular binding domain of insulin combined with membrane receptor density measurements. Exposure of normal donor cells to plasma from shock rats, but not to plasma of control rats, causes extensive cleavage of the insulin binding domain. Furthermore, this cleavage causes also a reduction of the glucose transport into the cell cytoplasm. […] There is also a significant cleavage of the extracellular domain of the tight junction protein E-cadherin in intestinal epithelium and CAT-1 in leukocytes."}, "hemorrhagic shock [6]": {"test_system": "hemorrhagic shock", "assay": "Survival of lab rodents in hemorrhagic shock given basic shock care with or without inhibitor", "assay_type": "in vivo", "conditions": "10 of 19 rodents treated; one of nine untreated survived", "excerpt": "The researchers then began animal studies. The present invention is based on the latest research using rodent models of human hemorrhagic shock. Here it has been discovered that the sudden lowering of blood pressure that occurs in people suffering from […] can provoke the body's digestive enzymes to break down the body's own intestinal tissue as if it were food. Such enzymes' abnormal actions may be defined as “auto-digestion.” Auto-digestion is dangerous because not only does it injure healthy tissue but also contributes to multi-organ failure, which can be fatal.\nThe healthy cells of the animals' intestinal tissue react to auto-digestion by releasing a slew of substances that can be toxic to the heart and other body organs. These substances, termed cytotoxic mediators, can reach these body organs via the blood stream. In their latest studies, shock was induced in 19 lab rodents, all of which were then treated with therapies that mirror the emergency room care given to many human patients who suffer shock, which typically occurs when blood flow to the heart, lungs and other body organs is slowed as a result of trauma, dehydration, heart attack or stroke.\nA total of 10 of the 19 lab rodents in shock were also treated with the experimental digestive enzyme inhibitor called ANGD. […] However, only one of the nine “untreated” animals in shock survived. […]"}, "[7]": {"test_system": "superior mesenteric artery occlusion (SMAO)-induced shock", "assay": "Delayed intestinal lavage with protease inhibitor during reperfusion after SMAO", "assay_type": "in vivo, Male Wistar rats", "excerpt": "In one series of experiments, the inventors discovered that delayed inhibition of digestive enzymes in the lumen of the intestine reduces inflammatory markers after shock. As a clinically relevant situation, the inventors examined the effectiveness of a delayed intestinal protease inhibition during reperfusion after SMAO. […] Intestinal ischemia-induced endotoxemia was prevented by digestive enzyme inhibition.\nIn summary, delayed intestinal protease inhibition serves to improve experimental SMAO-induced shock by reducing intestinal injury, the level of cell activation in plasma and in the microcirculation, and by restoring the blood pressure."}, "[8]": {"test_system": "intestinal ischemia-induced shock", "assay": "Intra-intestinal pancreatic protease inhibition in intestinal ischemia and reperfusion (SMAO)", "assay_type": "in vivo", "excerpt": "These experiments were designed to examine whether inflammatory mediators generated in the intestine by digestive enzymes are released early into the circulation and may contribute to the severe systemic inflammatory response syndrome during shock, a condition that involves the microcirculation in peripheral organs. Intestinal ischemia and reperfusion-induced hypotension upon reperfusion was accompanied by a significant increase in the level of neutrophil activating factors in the intestine and plasma. During reperfusion a significant increase in leukocyte-endothelium interactions in post-capillary venules and parenchymal cell death are observed in the cremaster muscle in controls after SMAO. […] In addition, ischemia-induced intestinal mucosal injury is attenuated with intestinal pancreatic protease inhibition."}, "[9]": {"test_system": "septic shock with a lethal dose of endotoxin", "assay": "Intra-luminal lavage after lethal dose of endotoxin (septic shock)", "assay_type": "in vivo, rat", "conditions": "endotoxin 4 mg/kg i.v.", "excerpt": "Sepsis is accompanied by severe inflammation whose mechanism remains uncertain. The inventors examined the possibility that pancreatic digestive enzymes may also be involved in inflammation in an experimental form of septic shock with a lethal dose of endotoxin in the rat. Immediately after intravenous endotoxin administration, the small intestine was subjected to intra-luminal lavage with and without an inhibitor of pancreatic digestive proteases (FOY, gabexate mesilate). After endotoxin administration (4 mg/kg, gram-negative), control rats developed hypotension, tachycardia, hyperventilation and leukopenia. The intestine and plasma contained mediators that activated leukocytes. The leukocyte-endothelial interaction within the cremaster muscle microcirculation was enhanced. […] These experiments indicate that inflammatory mediators derived from the intestine by digestive proteases may be involved in the prolonged inflammatory response and may sustain symptoms of sepsis after an endotoxin challenge. A bolus administration of endotoxin causes a transient inflammation response and elevated intestinal permeability. But the sustained inflammation that leads to multi-organ failure in this situation is caused by auto-digestion due to escape of pancreatic digestive enzymes from the lumen of the intestine due to the elevated mucosal permeability."}, "[10]": {"test_system": "cytotoxic factors (free fatty acids) of intestinal homogenates", "assay": "Cell death caused by rat small intestine homogenates", "assay_type": "cell-based", "conditions": "homogenization of intestinal wall in the presence of the inhibitor", "excerpt": "Breakdown of free fatty acid binding proteins by proteases causes release of free fatty acids to act as powerful cytotoxic mediators."}, "septic shock": {"test_system": "septic shock", "conditions": "FDA approved treatment; more recent trials could not confirm the effectiveness; cited from earlier work"}, "[11]": {"conditions": "100 ml/kg of 0.37 mM in GOLYTELY via duodenal catheter"}, "[12]": {"conditions": "blockade in lumen of intestine and peritoneum, two weeks observation, P < 0.001"}, "[13]": {"conditions": "FOY 0.37 mM, delayed lavage at 40 min after reperfusion"}}}
{"compound": "NC[C@H]1CC[C@H](C(=O)O)CC1", "note": "[CYCLOKAPRON, tranexamic acid]", "values": [{"measurement": "survival rate (survivors/treated)", "setting": "Cecal Lig. Shock", "value": "5/5"}]}
{"compound": "N=C(N)c1ccc2cc(OC(=O)c3ccc(N=C(N)N)cc3)ccc2c1", "note": "[ANGD, 6-amidino-2-naphthyl p-guanidobenzoate dimethane-sulfate]", "values": [{"measurement": "protease activity in the intestinal lumen and in plasma throughout the experiment", "setting": "hemorrhagic shock [1]; [11]", "value": "persistent suppression"}, {"measurement": "protein and protease levels in the duodenum during enteroclysis", "setting": "hemorrhagic shock [1]; [11]", "value": "significant reductions"}, {"measurement": "leukocyte infiltration into the lung", "setting": "hemorrhagic shock [1]; p=0.04", "value": "lower in treated than control animals"}, {"measurement": "liver and small intestine injury", "setting": "hemorrhagic shock [1]; pig, in vivo", "value": "less injury"}, {"measurement": "transfusion requirement of shed blood", "setting": "hemorrhagic shock [1]; versus 30±0.43 ml/kg in controls, p=0.002", "value": "18.1 ± 4.5", "unit": "mL/kg"}, {"measurement": "level of neutrophil activation after resuscitation", "setting": "hemorrhagic shock [1]; versus 46.9±4.5% in controls, p=0.0002", "value": "31.1±3.3", "unit": "%"}, {"measurement": "protection against inflammation in shock", "setting": "[2]", "value": "less, and in some cases no protection"}, {"measurement": "Non-Survivor", "setting": "Hemorrhagic Shock [3]", "value": "2 number of rats"}, {"measurement": "Survivor", "setting": "Hemorrhagic Shock [3]", "value": "10 number of rats"}, {"measurement": "Non-Survivor", "setting": "Endotoxic Shock", "value": "1 number of rats"}, {"measurement": "Survivor", "setting": "Endotoxic Shock", "value": "10 number of rats"}, {"measurement": "Non-Survivor", "setting": "Cecal Lig. Shock; [12]", "value": "1 number of rats"}, {"measurement": "Survivor", "setting": "Cecal Lig. Shock; [12]", "value": "9 number of rats"}, {"measurement": "survival rate versus untreated controls", "setting": "[4]; in each shock model", "value": "significantly enhanced survival rate"}, {"measurement": "return of treated survivors to normal weight gain", "setting": "[4]; rat, in vivo", "value": "≤ 3", "unit": "days"}, {"measurement": "return of treated survivors to normal activity after anesthesia", "setting": "[4]; walking, climbing, grooming, drinking, eating, bowel movements", "value": "within hours"}, {"measurement": "block of plasma enzymatic activity", "setting": "[5]", "value": "more than 50%"}, {"measurement": "survival (survivors of treated animals)", "setting": "hemorrhagic shock [6]", "value": "Eight of the ten"}]}
{"compound": "aprotinin [TRASYLOL]", "values": [{"measurement": "protection against inflammation in shock", "setting": "[2]", "value": "less, and in some cases no protection"}, {"measurement": "survival rate (survivors/treated)", "setting": "Cecal Lig. Shock", "value": "4/5"}]}
{"compound": "CCOC(=O)c1ccc(OC(=O)CCCCCN=C(N)N)cc1.CS(=O)(=O)O", "note": "[FOY, gabexate mesilate]", "values": [{"measurement": "formation of intestine-derived leukocyte activation factors", "setting": "[7]; [13]", "value": "decreased formation"}, {"measurement": "intestinal injury", "setting": "[7]; [13]", "value": "decreased"}, {"measurement": "blood pressure", "setting": "[7]; FOY 0.37 mM, delayed lavage at 40 min after reperfusion, SMAO 100 min", "value": "highly significant restoration of the initial blood pressure before shock"}, {"measurement": "leukocytes adhesion in post-capillary venules", "setting": "[7]; cremaster muscle microcirculation", "value": "lower leukocytes adhesion"}, {"measurement": "cell death in the cremaster muscle microcirculation", "setting": "[7]; rat, in vivo", "value": "reduced cell death"}, {"measurement": "intestinal ischemia-induced endotoxemia", "setting": "[7]; rat, in vivo", "value": "prevented"}, {"measurement": "leukocyte-endothelial interactions (rolling and firm adhesion to the endothelium)", "setting": "[8]; cremaster muscle", "value": "almost completely abolished"}, {"measurement": "cell death (propidium iodine labeling) in the cremaster muscle", "setting": "[8]; in vivo", "value": "almost completely abolished"}, {"measurement": "ischemia-induced intestinal mucosal injury", "setting": "[8]; in vivo", "value": "attenuated"}, {"measurement": "blood pressure", "setting": "[8]; intra-intestinal, 0.37 mM", "value": "stable blood pressure throughout the experiment"}, {"measurement": "cell activation", "setting": "[8]; intra-intestinal, 0.37 mM", "value": "almost completely abolished"}, {"measurement": "cell injury in peripheral skeletal muscle microcirculation", "setting": "[9]", "value": "reduces"}, {"measurement": "indices of inflammation in plasma", "setting": "[9]", "value": "reduces all indices"}, {"measurement": "hemodynamic parameters", "setting": "[9]; intra-luminal lavage immediately after", "value": "significantly improved"}]}
{"compound": "CCCCCCCCCCC[C@@H](C[C@@H]1OC(=O)[C@H]1CCCCCC)OC(=O)[C@H](CC(C)C)NC=O", "note": "[orlistat]", "values": [{"measurement": "cell death after protease digestion", "setting": "[10]", "value": "prevented cell death"}]}
{"compound": "drotrecogin alfa (activated) [XIGRIS]", "values": [{"measurement": "survival benefit", "setting": "septic shock", "value": "minor but confirmed survival benefit"}]}
